Experimental data reported in PubChem BioAssay (NCI).
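A five-concentration, 48-hour dose response in 96-well plates underlies each endpoint, interpolated linearly between surrounding concentrations. Abbreviation: GI50, concentration required for 50% inhibition of growth. Definition used: TGI = concentration required for complete inhibition of growth.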

Legend:
Experiment in all cases: NCI-60 cell line screen, 48 h
CAKI-1 renal = test system: CAKI-1 renal
KM12 colon = test system: KM12 colon
LOX IMVI melanoma = test system: LOX IMVI melanoma
MOLT-4 leukemia = test system: MOLT-4 leukemia
NCI-H522 lung = test system: NCI-H522 lung
SK-MEL-2 melanoma = test system: SK-MEL-2 melanoma
SK-OV-3 ovarian = test system: SK-OV-3 ovarian
NCI-H460 lung = test system: NCI-H460 lung
BT-549 breast = test system: BT-549 breast
DU-145 prostate = test system: DU-145 prostate

Structure (SMILES) | TGI (CAKI-1 renal) | TGI (KM12 colon) | TGI (LOX IMVI melanoma) | TGI (MOLT-4 leukemia) | TGI (NCI-H522 lung) | TGI (SK-MEL-2 melanoma) | TGI (SK-OV-3 ovarian) | TGI (NCI-H460 lung) | GI50 (BT-549 breast) | TGI (BT-549 breast) | GI50 (CAKI-1 renal) | GI50 (MOLT-4 leukemia) | GI50 (NCI-H460 lung) | GI50 (NCI-H522 lung) | GI50 (SK-OV-3 ovarian) | GI50 (KM12 colon) | GI50 (LOX IMVI melanoma) | GI50 (SK-MEL-2 melanoma) | GI50 (DU-145 prostate) | TGI (DU-145 prostate)
CC(=O)OCc1c(C)c2ccccc2n1C(C)=O | > 100 µM | > 100 µM | > 100 µM | 86.7 µM | 39.2 µM | 43.3 µM | > 100 µM |  |  |  |  |  |  |  |  |  |  |  |  | 
CN1CCc2cc(O)c3cc2C1Cc1ccc(cc1)Oc1cc(ccc1O)CC1c2c(cc4c(c2O3)OCO4)CCN1C (centres undefined) |  | > 100 µM |  | 85.4 µM |  | 34.2 µM |  | > 100 µM |  |  |  |  |  |  |  |  |  |  |  | 
COc1cc(C2C(C(=O)OCc3ccccc3)=C(C)NC(C)=C2C(=O)OCc2ccccc2)cc(OC)c1OC | > 100 µM |  |  | > 100 µM | > 100 µM |  | > 100 µM | > 100 µM | 3.3 µM | > 100 µM | 3.05 µM | 1.31 µM | 3.54 µM | 3.57 µM | 4.78 µM |  |  |  |  | 
CN/N=C(/CC(=O)c1sc(-n2nc(-c3ccccc3)cc2-c2ccccc2)nc1C)C(=O)Nc1ccc(Cl)c(Cl)c1 | > 100 µM | > 100 µM | > 100 µM | > 100 µM | > 100 µM | > 100 µM | > 100 µM | > 100 µM |  |  |  |  |  |  |  |  |  |  |  | 
CCOC1=C2C(C)(CCC3[C@@]4(C)C=CC(=O)C(C)(C)C4CC(O)[C@@]23C)C(c2ccoc2)C1=O (some centres undefined) | > 100 µM | 46.6 µM | 29.1 µM | 40.4 µM |  | 43.4 µM | 76.8 µM | 28.4 µM |  |  |  |  |  |  |  |  |  |  |  | 
O=C(CC(=O)c1cccc([N+](=O)[O-])c1)C(=O)Nc1nc([N+](=O)[O-])cs1 | > 100 µM | > 100 µM | > 100 µM | > 100 µM | > 100 µM | > 100 µM | > 100 µM | > 100 µM |  |  |  |  |  |  |  |  |  |  |  | 
CCC[CH2][Ge]([CH2]CCC)([CH2]CCC)[O]C(=O)C(OC(C)=O)c1ccccc1 (centres undefined) | 47.4 µM | 22.1 µM | 9.14 µM | > 100 µM | 8.88 µM | 19.5 µM | 55.5 µM | 20 µM |  |  | 13.7 µM | 0.153 µM | 1.24 µM | 0.304 µM | 12.4 µM | 2.98 µM | 0.535 µM | 3.17 µM |  | 
O=C(OC(CNc1c(C(=O)c2ccccc2)c(=O)n(Cc2ccccc2)c(=O)n1Cc1ccccc1)CN1CCCCC1)c1ccccc1 (centres undefined) | 35.5 µM | 40.2 µM | 25.4 µM |  | 40.7 µM | 34.8 µM | > 100 µM | 46.7 µM | 25.5 µM | 82.9 µM | 18.3 µM |  | 21.1 µM | 21.1 µM | 37.6 µM | 19.9 µM | 12.8 µM | 19.1 µM | 29.3 µM | 80.9 µM
N#Cc1nc(Nc2ccc(Cl)cc2)sc1N | 45.1 µM | > 86.5 µM | 13.7 µM | 29.2 µM | 11.3 µM | 47.3 µM | > 100 µM | > 74.7 µM |  |  |  |  |  |  |  |  |  |  |  | 
Nc1nc(Cl)nc2c1ncn2C1CCC(COP(=O)(O)OP(=O)(O)OP(=O)(O)O)O1 (centres undefined) | > 100 µM | > 100 µM | 78.5 µM | > 100 µM | > 100 µM |  | > 100 µM | > 100 µM |  |  |  |  |  |  |  |  |  |  |  | 69.8 µM
O=C1C2C3CCC(C2C(=O)N1CO)C1C2C(=O)N(CO)C(=O)C2C31 (centres undefined) | > 100 µM | > 100 µM | > 61.9 µM | 67.7 µM | > 100 µM | > 100 µM | > 100 µM | > 54.5 µM |  |  |  |  |  |  |  |  |  |  |  | 
